Laboratory results from patent US7927850B2, “Composition containing trehalose synthase and methods of use thereof” (Academia Sinica, priority 2006, dated 2011).

Assays:
recombinant PTTS = test: Substrate specificity of recombinant PTTS; type: biochemical, Picrophilus torridus; conditions: standard assay conditions
Protocol: (§1) The activity of PTTS was assayed by measuring the amount of trehalose produced from maltose. The standard reaction was performed by adding 1.5 μL purified enzyme into 50 μL reaction solution containing 50 mM sodium phosphate (pH 6.0) and 150 mM maltose and incubating in a 45° C. water bath for 25 min. The assay time was under the linear range of enzyme reaction. The reaction was terminated by heating the mixture in boiling water for 15 min. One unit of enzyme activity was defined as the amount of enzyme that catalyzes the formation of 1 μmol of trehalose per min. Kinetic analysis was performed under conditions of pH 6.0 and 45° C. for 5 min in 50 mM sodium phosphate buffer containing substrate (maltose, trehalose, or maltose plus a constant 10 mM of glucose) at various concentrations. The resulting data were analyzed offline with Origin 6.0 software (Microcal, Northampton, Mass.). All experiments were carried out in duplicate or triplicate.
The amount of trehalose, glucose, and maltose after each enzymatic reaction was measured using a high performance liquid chromatography (HPLC) (SFD 2100) system equipped with an RI detector (Schambeck S F D, RI 2000) at a flow rate of 0.9 mL/min. A carbohydrate analysis column (HYPERSIL-100 Amino, Thermo Hypersil-Keystone) equilibrated with 75% acetonitrile, 24% Milli-Q water, and 1% formic acid was used. The retention times of glucose, maltose, and trehalose were 8.0, 11.2, and 12.5 min, respectively.
Substrate Specificity of Recombinant PTTS. […] It also acted on sucrose and catalyzed the formation of glucose, fructose, and trehalulose [α-D-glucopyranosyl-(1,1)-D-fructofuranose], however, the activity is quite low. In addition, it converted the α,β-1,1-trehalose to maltose, though only about 7% just as with the α,α-1,1-trehalose.

PTTS = test: Effects of metal ions and reagents on PTTS activity; type: biochemical, Picrophilus torridus; conditions: 1 mM metal ion or reagent, standard assay conditions
Protocol: as §1
Effects of Metal Ions and Reagents on PTTS Activity. The effects of metal ions and reagents were determined by examining enzyme activity in the presence of 1 mM and 10 mM metal ions or reagents under standard assay conditions (FIG. 8).

| Compound | activity of recombinant PTTS with the substance as substrate (recombinant PTTS) | inhibition of enzyme activity (PTTS) | other results |
| --- | --- | --- | --- |
| OC[C@H]1O[C@H](O[C@H]2[C@H](O)[C@@H](O)[C@@H](O[C@H]3[C@H](O)[C@@H](O)[C@@H](O[C@H]4[C@H](O)[C@@H](O)[C@@H](O[C@H]5[C@H](O)[C@@H](O)C(O)O[C@@H]5CO)O[C@@H]4CO)O[C@@H]3CO)O[C@@H]2CO)[C@H](O)[C@@H](O)[C@@H]1O (stereo partly drawn) [maltopentose] | No detectable activities | – | – |
| [Al+3] [Al^3+] | – | inhibited strongly | – |
| [Hg+2] [Hg^2+] | – | inhibited strongly | – |
| maltotriose | No detectable activities | – | – |
| OC[C@H]1O[C@H](OC[C@H]2OC(O)(CO)[C@@H](O)[C@@H]2O)[C@H](O)[C@@H](O)[C@@H]1O (stereo partly drawn) [isomaltulose] | No detectable activities | – | – |
| [Cu+2] [Cu^2+] | – | moderately | – |
| OC[C@H]1O[C@H](O[C@H]2[C@H](O)[C@@H](O)[C@@H](O[C@H]3[C@H](O)[C@@H](O)[C@@H](O[C@H]4[C@H](O)[C@@H](O)C(O)O[C@@H]4CO)O[C@@H]3CO)O[C@@H]2CO)[C@H](O)[C@@H](O)[C@@H]1O (stereo partly drawn) [maltotetraose] | No detectable activities | – | – |
| [Ag+] [Ag^+] | – | inhibited strongly | – |
| CCCCCCCCCCCCOS(=O)(=O)[O-].[Na+] [SDS] | – | inhibited strongly | – |
| OC[C@H]1O[C@@H](O[C@@H]2O[C@H](CO)[C@@H](O)[C@H](O)[C@H]2O)[C@H](O)[C@@H](O)[C@@H]1O [β,β-1,1-trehalose] | No detectable activities | – | – |
| OC[C@H]1O[C@@H](O[C@H]2O[C@H](CO)[C@@H](O)[C@H](O)[C@H]2O)[C@H](O)[C@@H](O)[C@@H]1O [α,β-1,1-trehalose] | – | – | conversion to maltose relative to α,α-1,1-trehalose (recombinant PTTS): about 7% |
| NC(CO)(CO)CO [Tris] | – | moderately | – |
| OC[C@H]1O[C@H](O[C@H]2[C@H](O)[C@@H](O)[C@H](O)O[C@@H]2CO)[C@H](O)[C@@H](O)[C@@H]1O [maltose] | converted them to each other | – | – |
| O=C(CO)[C@@H](O)[C@H](O)[C@H](O)CO [fructose] | No detectable activities | – | – |
| OC[C@H]1O[C@H](O[C@H]2O[C@H](CO)[C@@H](O)[C@H](O)[C@H]2O)[C@H](O)[C@@H](O)[C@@H]1O [trehalose, α-D-glucopyranosyl α-D-glucopyranoside] | converted them to each other | – | – |
| [Cd+2] [Cd^2+] | – | moderately | – |
| OC[C@H]1O[C@@](CO)(O[C@H]2O[C@H](CO)[C@@H](O)[C@H](O)[C@H]2O)[C@@H](O)[C@@H]1O [sucrose] | quite low | – | – |
| OC[C@@H](O)[C@@H](O)[C@H](O)[C@@H](O)CO [sorbitol] | No detectable activities | – | – |
| OC[C@H]1O[C@@H](O[C@H]2[C@H](O)[C@@H](O)C(O)O[C@@H]2CO)[C@H](O)[C@@H](O)[C@H]1O (stereo partly drawn) [lactose] | No detectable activities | – | – |
| [Pb+2] [Pb^2+] | – | moderately | – |
| O=C[C@H](O)[C@@H](O)[C@@H](O)[C@H](O)CO [galactose] | No detectable activities | – | – |
